Reference: patent US20250074892A1, “CARBONYL BRIDGED HETEROCYCLIC COMPOUND, AND COMPOSITION AND APPLICATION THEREOF” (BEIJING SCITECH-MQ PHARMACEUTICALS LIMITED, priority 2022, published 2025)
Like-named read-outs stand apart in the source and are kept apart here.

What was measured:
[1] = Beagle PK (pharmacokinetics); assay type: in vivo, beagle dogs; settings: whole blood, Beagle dog
Experimental: (§1) In this assay, the pharmacokinetic characteristics and ability to penetrate the blood-brain barrier of the compounds of the present application were assayed after administration of some of the compounds of the present application to SD rats, CD-1 mice or beagle dogs by single oral administration and intravenous injection.
(§2) 1. Intravenous (IV) injection group: an appropriate amount of the assay compound was weighed, and completely dissolved in an appropriate volume of vehicle. The mixture was stirred, vortexed and/or sonicated. Once a solution was obtained, the vehicle was gradually added to a final volume to reach the target concentration. The solution was vortexed, and sonicated to obtain a homogeneous solution. The solution was filtered through a […] PVDF membrane.
(§3) 2. Oral (PO) group: an appropriate amount of the assay compound was weighed, and completely dissolved in an appropriate volume of vehicle. The mixture was stirred, vortexed and/or sonicated. Once a solution was obtained, the vehicle was gradually added to a final volume to reach the target concentration. The solution was vortexed, and sonicated to obtain a homogeneous solution.
(§4) Meanwhile, the IV group was not fasted and the PO group was fasted overnight (>12 hrs) and given food 2 hrs after drug administration. All animals had free access to water. The dosing regimen and pharmacokinetic sampling regimen are given in Table 10 and Table 11 below, respectively.
(§5) The brain was weighed and homogenized by adding 4 times of ultrapure water. Six times volume of acetonitrile was added respectively to the whole blood samples and brain homogenate (20 times volume of acetonitrile was added to the whole blood sample of mouse PK). The mixture was vortexed for 1 min and then centrifuged at 4° C., 4500 rpm for 15 min. According to the instrument response, the supernatant was diluted with diluent and the sample was analyzed by LC/MS.
(§6) Pharmacokinetic parameters were calculated using WinNonlin software. The following pharmacokinetic parameters were calculated if appropriate plasma/whole blood drug concentration-time data were available: CL (clearance); Vd (apparent volume of distribution); T1/2 (elimination half-life time); Cmax (peak concentration); Tmax (time to peak); AUC (area under plasma drug concentration-time curve); MRT (mean retention time); F % (bioavailability).

L929 cells = experiment: Inhibition of cell necrosis (CCK8 method), L929 cells; assay type: cell-based, mouse; settings: Mus musculus, L929, L929, Murine TNF-α/Z-VAD-FMK, 4-8 hours, CCK8
Summary of the method: (§7)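 HT29 (1.2×10^4/well) and L929 (2.0×10^4/well) cells were pretreated 30 min with compound, 9-point 4-fold series from 10 μM in duplicate. Necrosis was induced with human TNF-α 20 ng/mL, AT-406 […] and Z-VAD-FMK 20 μM for 16 h (HT29), or murine TNF-α 20 ng/mL and Z-VAD-FMK 25 μM for 4-8 h (L929). CCK8 viability; IC50 from dose-effect curve.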

[2] = Rat PK&BBB (pharmacokinetics and brain penetration); assay type: in vivo, SD rats
Experimental: as §1, §2, §3, §4
Rats were administered according to the above protocol, and blood and brain tissue samples were collected and processed at predetermined time points (collection and processing were performed according to conventional methods in the art).
as §5, §6

HT29 cells = experiment: Inhibition of cell necrosis (CCK8 method), HT29 cells; assay type: cell-based, human; settings: Homo sapiens, HT-29, 16 h, HT29, Human TNF-α/AT-406/Z-VAD-FMK, 16 hours, CCK8
Summary of the method: as §7

[3] = IV 1 mg/kg, read-out: Blood drug concentration
[4] = PO 3 mg/kg, read-out: Blood drug concentration
[5] = Sprague-Dawley, rat, whole blood, iv, 3 mg/kg, IV 3 mg/kg, read-out: Blood drug concentration
[6] = Sprague-Dawley, rat, whole blood, po, 30 mg/kg, PO 30 mg/kg, read-out: Blood drug concentration

Structure (SMILES): O=C(C1CCN(c2cc(-c3cc(OCCCO)ccc3F)ccn2)CC1)N1N=CCC1c1cc(F)cc(F)c1 (racemic) [Example 18, (5-(3,5-difluorophenyl)-4,5-dihydro-1H-pyrazol-1-yl)(1-(4-(2-fluoro-5-(3-hydroxypropoxy)phenyl)pyridin-2-yl)piperidin-4-yl)methanone]
- AUC(0-inf) ([1]; IV 1 mg/kg): 699 ± 474 ng·h/mL
- AUC(0-t) ([1]; IV 1 mg/kg): 682 ± 447 ng·h/mL
- Vd ([1]; IV 1 mg/kg): 2.42 ± 0.54 L/kg
- half-life ([1]; IV 1 mg/kg): 1.13 ± 0.65 h
- concentration at 0 hr [1, 3]: 0 ng/mL
- concentration at 0.083 hr ([1]; IV 1 mg/kg, 0.083 hr, read-out: Blood drug concentration): 843 ± 237 ng/mL
- concentration at 0.25 hr [1, 3]: 575 ± 222 ng/mL
- concentration at 0.5 h [1, 3]: 334 ± 229 ng/mL
- concentration at 1 h [1, 3]: 170 ± 148 ng/mL
- concentration at 2 h [1, 3]: 57.9 ± 63.2 ng/mL
- concentration at 4 h [1, 3]: 26 ± 24.1 ng/mL
- concentration at 7 h [1, 3]: 10 ng/mL
- clearance ([1]; IV 1 mg/kg, read-out: Cl—obs): 31.4 ± 17.4 mL/min/kg
- AUC(0-inf) ([1]; PO 3 mg/kg): 4240 ng·h/mL
- AUC(0-t) ([1]; PO 3 mg/kg): 4210 ng·h/mL
- Cmax ([1]; PO 3 mg/kg): 1460 ng/mL
- Tmax ([1]; PO 3 mg/kg): 1 h
- half-life ([1]; PO 3 mg/kg): 4.55 h
- bioavailability ([1]; PO 3 mg/kg vs IV 1 mg/kg): 183%
- concentration at 0 hr [1, 4]: 0 ng/mL
- concentration at 0.25 hr [1, 4]: 469 ng/mL
- concentration at 0.5 h [1, 4]: 1060 ng/mL
- concentration at 1 h [1, 4]: 1460 ng/mL
- concentration at 2 h [1, 4]: 932 ng/mL
- concentration at 4 h [1, 4]: 138 ng/mL
- concentration at 7 h [1, 4]: 82.4 ng/mL
- concentration at 24 h ([1]; PO 3 mg/kg, 24 hr, read-out: Blood drug concentration): 4.41 ng/mL
- IC50 (L929 cells): 50 to 100 nM
- AUC(0-inf) ([2]; SD, whole blood, IV 3 mg/kg): 560 ± 62 ng·h/mL
- AUC(0-t) ([2]; SD, whole blood, IV 3 mg/kg): 559 ± 62 ng·h/mL
- Vd ([2]; SD, whole blood, IV 3 mg/kg): 8.24 ± 0.68 L/kg
- half-life ([2]; SD, whole blood, IV 3 mg/kg): 1.06 ± 0.07 h
- clearance ([2]; SD, whole blood, IV 3 mg/kg, read-out: Cl—obs): 90.1 ± 10.7 mL/min/kg
- AUC(0-inf) ([2]; SD, whole blood, PO 30 mg/kg): 967 ± 285 ng·h/mL
- AUC(0-t) ([2]; SD, whole blood, PO 30 mg/kg): 922 ± 357 ng·h/mL
- Cmax ([2]; SD, whole blood, PO 30 mg/kg): 309 ± 103 ng/mL
- Tmax ([2]; SD, whole blood, PO 30 mg/kg): 1 h
- half-life ([2]; SD, whole blood, PO 30 mg/kg): 3.1 ± 0.24 h
- bioavailability ([2]; SD, whole blood, PO 30 mg/kg vs IV 3 mg/kg): 17.3 ± 5.1%
- Kp at 2 h ([2]; Sprague-Dawley, brain / whole blood, PO 30 mg/kg, 2 h after administration, read-out: Brain/blood ratio): 1.49
- concentration at 2 h ([2]; Sprague-Dawley, rat, brain, po, 30 mg/kg, PO 30 mg/kg, 2 h after administration, read-out: Brain concentration): 397 ng/g
- concentration at 0 h [2, 5]: 0 ng/mL
- concentration at 0.083 h ([2]; Sprague-Dawley, rat, whole blood, iv, 3 mg/kg, IV 3 mg/kg, 0.083 hr, read-out: Blood drug concentration): 1170 ± 149 ng/mL
- concentration at 0.25 h [2, 5]: 571 ± 31 ng/mL
- concentration at 0.5 h [2, 5]: 275 ± 24 ng/mL
- concentration at 1 h [2, 5]: 94.7 ± 10.7 ng/mL
- concentration at 2 h ([2]; Sprague-Dawley, rat, whole blood, iv, 3 mg/kg, IV 3 mg/kg, 2 hr, read-out: Blood drug concentration): 25.5 ± 4.7 ng/mL
- concentration at 4 h [2, 5]: 4.13 ± 0.75 ng/mL
- concentration at 7 h [2, 5]: 0.927 ± 0.301 ng/mL
- concentration at 0 h [2, 6]: 0 ng/mL
- concentration at 0.25 h [2, 6]: 85.6 ± 26.6 ng/mL
- concentration at 0.5 h [2, 6]: 239 ± 47 ng/mL
- concentration at 1 h [2, 6]: 309 ± 103 ng/mL
- concentration at 2 h ([2]; Sprague-Dawley, rat, whole blood, po, 30 mg/kg, PO 30 mg/kg, 2 hr, read-out: Blood drug concentration): 165 ± 90 ng/mL
- concentration at 4 h [2, 6]: 68.7 ± 31 ng/mL
- concentration at 7 h [2, 6]: 23.5 ± 5.2 ng/mL
- concentration at 24 h ([2]; Sprague-Dawley, rat, whole blood, po, 30 mg/kg, PO 30 mg/kg, 24 hr, read-out: Blood drug concentration): 0.557 ng/mL
- concentration at 2 h ([2]; Sprague-Dawley, rat, whole blood, po, 30 mg/kg, PO 30 mg/kg, whole blood, 2 h after administration, read-out: Blood drug concentration): 266 ng/mL
- IC50 (HT29 cells): ≤ 10 nM
